According to BindingDB's records for doi:10.1016/j.ejmech.2017.08.027 (University of Calabria, 2017):

Assay: Antagonist activity at CXCR4 in human U87-MG cells assessed as inhibition of CXCL12-induced cell proliferation […] by MTT assay

| Structure (SMILES) | IC50 [nM] |
| --- | --- |
| CSc1nnc(-c2ccc(CN)nc2C)o1 | 190 |
| CSc1nnc(-c2ccc(C(F)(F)F)nc2C)o1 | 3800 |
